Laboratory results taken from US12083138B2, “Methods to reduce complications of intra-articular steroid” (TAIWAN LIPOSOME CO., LTD., priority 2018, dated 2024).

What was measured:
chondrocyte = details: compared among hydrocortisone, triamcinolone and dexamethasone; cited from earlier work
cartilage = assay: Cartilage toluidine blue staining, comparison of TLC599 with TA and ER-TA, Study #75903-18-214
Procedure: Proteoglycan loss was evaluated by cationic dyes, toluidine blue, that staining proteoglycans.

For `C[C@@H]1C[C@H]2[C@@H]3CCC4=CC(=O)C=C[C@]4(C)[C@@]3(F)[C@@H](O)C[C@]2(C)[C@@]1(O)C(=O)CO` [dexamethasone], the “effectiveness to induce chondrocyte apoptosis” value (chondrocyte) is given as “most effective”.

In the case of `CC1(C)O[C@@H]2C[C@H]3[C@@H]4CCC5=CC(=O)C=C[C@]5(C)[C@@]4(F)[C@@H](O)C[C@]3(C)[C@]2(C(=O)CO)O1` [TA, triamcinolone acetonide], the “proteoglycan loss (toluidine blue staining)” value (cartilage; high dose 18.75 mg/knee, single IA injection, vs saline (FIG. 3)) is reported as “significantly proteoglycan loss compared to saline” and the “proteoglycan loss in cartilage” value (cartilage; single dose (FIG. 3)) is reported as “moderate proteoglycan loss”.
